{
  "source": "patent US6773891B2",
  "about": "(priority 1998, dated 2004)",
  "key": {"[1]": {"system": "rabbits", "conditions": "i.m., dose 100 μg, arithmetic mean six to seven weeks after third injection", "experimental": "(§1) Antibodies generated against 3′ AMNic vaccine were evaluated using a 3′ AMNic-pGlu ELISA as follows: Dynatech Immulon 4 microtiter plates (Chantilly, Va.) were coated 100 μL/well with 10 ng/mL 3′ AMNic-pGlu in 0.1 M bicarbonate buffer, pH 9.6 and allowed to incubate overnight (ON) at room temperature (RT). The plates were then aspirated and blocked with 1% BSA in PBS for one hour at RT. […] The plates were washed ([…], 0.1% BRIJ) five times and diluted samples and reference serum were loaded. The reference and samples were 2-fold diluted down the plates for a final volume of 100 μL/well and plates are incubated for 1 hour at 37° C. The plates were then washed again and loaded 100 μL/well with peroxidase-conjugated anti-species IgG, Fc specific (Jackson, West Grove, Pa.) diluted in PBB and incubated at 37° C. for one hour. The plates were washed and incubated 10 minutes at RT with 100 μl/well 3,3′,5,5′-tetramethylbenzidine (TMB) substrate (KPL, Gaithersburg, Md.) diluted 1:1 with H2O2 (supplied with TMB reagent kit). The reaction is stopped with the addition of 100 μL/well 1 M phosphoric acid and read at 450 nm on an MR4000 microtiter plate reader (Dynatech). Samples are quantified in relation to the reference using parallel line analysis."}, "[2]": {"system": "mice", "conditions": "for Titer, 1 injection / Titer, 2 injections / Titer, 3 injections: s.c.; for Titer, 2 injections: one week after 2nd injection; for Titer, 3 injections: one week after 3rd injection", "method": "Animals were immunized using standard protocols. In mice, three subcutaneous injections of vaccine were administered, two weeks apart, with test bleeds performed one week following the first and second injection, and exsanguination occurring one week following the third injection. Serum samples were evaluated in an ELISA assay, described in Example 10. The ELISA assay utilized 3′ AMNic-pGlu bound to microtiter plates.\nAntibodies generated against 3′ AMNic vaccine were evaluated using a 3′ AMNic-pGlu ELISA as follows: Dynatech Immulon 4 microtiter plates (Chantilly, Va.) were coated 100 μL/well with 10 ng/mL 3′ AMNic-pGlu in 0.1 M bicarbonate buffer, pH 9.6 and allowed to incubate overnight (ON) at room temperature (RT). The plates were then aspirated and blocked with 1% BSA in PBS for one hour at RT. […] The plates were washed (9% NaCl, 0.1% BRIJ) five times and diluted samples and reference serum were loaded. The reference and samples were 2-fold diluted down the plates for a final volume of 100 μL/well and plates are incubated for 1 hour at 37° C. The plates were then washed again and loaded 100 μL/well with peroxidase-conjugated anti-species IgG, Fc specific (Jackson, West Grove, Pa.) diluted in PBB and incubated at 37° C. for one hour. The plates were washed and incubated 10 minutes at RT with 100 μl/well 3,3′,5,5′-tetramethylbenzidine (TMB) substrate (KPL, Gaithersburg, Md.) diluted 1:1 with H2O2 (supplied with TMB reagent kit). The reaction is stopped with the addition of 100 μL/well 1 M phosphoric acid and read at 450 nm on an MR4000 microtiter plate reader (Dynatech). Samples are quantified in relation to the reference using parallel line analysis."}, "[3]": {"system": "rats", "conditions": "for Titer, 1 injection / Titer, 2 injections / Titer, 3 injections: i.p.; for Titer, 1 injection: one week after 1st injection; for Titer, 2 injections: one week after 2nd injection; for Titer, 3 injections: one week after 3rd injection", "experimental": "Rats were immunized intraperitoneally with the vaccines three times. Injections were given two weeks apart with test bleeds performed one week following the first and second injection. The rats were then exsanguinated one week after the third injection. Freund's complete adjuvant was used for the first injection, and incomplete Freund's adjuvant for the subsequent injections. Serum samples were evaluated in an ELISA assay.\nas §1"}, "[4]": {"system": "rats", "conditions": "three i.p. injections of 25 μg vaccine, 3 and 10 min after 0.03 mg/kg nicotine infusion over 10 seconds", "method": "To evaluate the present immunotherapy, an animal model has been developed to simulate the rapid absorption of nicotine from two cigarettes in humans. […] In this model, rats were administered 0.03 mg/kg of nicotine by i.v. infusion over 10 sec., simulating the rapid absorption of nicotine from the lungs in human smokers. Blood samples were taken at 3 and 10 min after nicotine injection for measurement of plasma nicotine."}, "[5]": {"conditions": "0.5 mg/mL in 1 mL glass vials", "method": "A stability study of the nicotine-carrier conjugate of example 4 was carried out. The study used the vaccine vialed in 1 mL glass vials at a concentration of 0.5 mg/mL and the stability of the vialed vaccine was tested at three different temperatures: −70° C., 2 to 8° C. and room temperature.\nThe stability study consisted of monitoring and assaying the conjugate vaccine using the following:\n1.) Visual observation to look for any particulates formed (turbidity, precipitation).\n2.) Checking for any significant pH change.\n3.) Size exclusion chromatography profile in combination with UV absorption at 260 and 280 nm to determine if the ratio of nicotine incorporation changed.\n4.) Reversed phase chromatography to check for any carrier protein degradation.\n5.) SDS PAGE with silver staining looking for any proteolytic cleavage of the conjugated protein."}, "[6]": {"system": "rats", "assay": "Locomotor effects of nicotine", "format": "in vivo", "conditions": "subcutaneous injection", "excerpt": "This experiment used was designed to determine whether passive immunization could prevent an immediate CNS mediated action of nicotine. The rat model used in this experiment was developed by Dr. David Malin and is described in Malin et al. Nicotine-specific IgG reduced distribution to brain and attenuates its behavioral and cardiovascular effects in rats, submitted to the Fifth Annual Meeting of the Society for Research on Nicotine and Tobacco, San Diego, Calif., Mar. 5-7, 1999; To establish a baseline, the effect of a subcutaneous injection of 0.8 mg/kg of nicotine tartrate on locomotor activity level of rats was measured. The 0.8 mg/kg dose of nicotine tartrate is the highest dose that could be used without inducing locomotor abnormalities.\nThere was an increase in activity level after nicotine injection in rats that were not pre-treated with anti-[3′ AMNic-Suc-rEPA], and in rats that were pretreated with 50 mg of normal rabbit serum IgG. See FIG. 6A, right bar and FIG. 6B, left bar. This effect was suppressed by pretreating the animals with 50 mg of anti-[3′ AMNic-Suc-rEPA] immune IgG (FIG. 6B, right bar)."}, "[7]": {"conditions": "cited from earlier work"}},
  "note": "Like-named read-outs stand apart in the source and are kept apart here.",
  "data": [
    {"compound": "3′aminomethyl-(−)-nicotine-succinyl-rEPA [3′AMNic-Suc-rEPA]", "values": [
      {"measurement": "Titer", "setting": "[1]", "value": "132,000"},
      {"measurement": "Booster response", "setting": "[2]", "value": "showed the ability to induce the booster response"},
      {"measurement": "Titer, 1 injection", "setting": "[2]; dose 1 μg (protein assay), arithmetic mean one week after 1st injection", "value": 0},
      {"measurement": "Titer, 2 injections", "setting": "[2]; dose 1 μg (protein assay)", "value": 36},
      {"measurement": "Titer, 3 injections", "setting": "[2]; dose 1 μg (protein assay)", "value": "4,280"},
      {"measurement": "Titer, 1 injection", "setting": "[2]; dose 5 μg (protein assay), one week after 1st injection", "value": 1},
      {"measurement": "Titer, 2 injections", "setting": "[2]; dose 5 μg (protein assay)", "value": 884},
      {"measurement": "Titer, 3 injections", "setting": "[2]; dose 5 μg (protein assay)", "value": "10,727"},
      {"measurement": "Titer, 1 injection", "setting": "[2]; dose 15 μg (protein assay), one week after 1st injection", "value": 3},
      {"measurement": "Titer, 2 injections", "setting": "[2]; dose 15 μg (protein assay)", "value": "2,476"},
      {"measurement": "Titer, 3 injections", "setting": "[2]; dose 15 μg (protein assay)", "value": "14,160"},
      {"measurement": "Booster response", "setting": "[3]", "value": "showed the ability to induce the booster response"},
      {"measurement": "Titer, 1 injection", "setting": "[3]; Freund's adjuvant, dose 15 μg (protein assay)", "value": 18},
      {"measurement": "Titer, 2 injections", "setting": "[3]; dose 15 μg (protein assay)", "value": "7,942"},
      {"measurement": "Titer, 3 injections", "setting": "[3]; dose 15 μg (protein assay)", "value": "9,947"},
      {"measurement": "Titer, 1 injection", "setting": "[3]; dose 25 μg (protein assay)", "value": 4},
      {"measurement": "Titer, 2 injections", "setting": "[3]; dose 25 μg (protein assay)", "value": "1,446"},
      {"measurement": "Titer, 3 injections", "setting": "[3]; dose 25 μg (protein assay)", "value": "5,991"},
      {"measurement": "Titer, 1 injection", "setting": "[3]; dose 50 μg (protein assay)", "value": 353},
      {"measurement": "Titer, 2 injections", "setting": "[3]; dose 50 μg (protein assay)", "value": "7,211"},
      {"measurement": "Titer, 3 injections", "setting": "[3]; dose 50 μg (protein assay)", "value": "8,996"},
      {"measurement": "Nicotine in plasma versus non-immunized controls", "setting": "[4]", "value": "increased levels of nicotine in plasma"},
      {"measurement": "Stability of the conjugate", "setting": "[5]; −70° C. and 2 to 8° C.", "value": "stability of the conjugate for six months"},
      {"measurement": "Stability of the conjugate", "setting": "[5]; −70° C., 2 to 80° C. and room temperature", "value": "stability of the conjugate for six months"}
    ]},
    {"compound": "3-aminomethyl-(−)-nicotine-polyglutamic acid-ADH-rEPA [3′AMNic-pGlu-ADH-rEPA]", "values": [
      {"measurement": "Titer", "setting": "[1]", "value": "147,000"},
      {"measurement": "Booster response", "setting": "[2]", "value": "showed the ability to induce the booster response"},
      {"measurement": "Titer, 1 injection", "setting": "[2]; dose 2 μg (dry weight of lyophilized conjugate), one week after 1st injection", "value": 2},
      {"measurement": "Titer, 2 injections", "setting": "[2]; dose 2 μg (dry weight)", "value": 739},
      {"measurement": "Titer, 3 injections", "setting": "[2]; dose 2 μg (dry weight)", "value": "6,586"},
      {"measurement": "Titer, 1 injection", "setting": "[2]; dose 10 μg (dry weight), one week after 1st injection", "value": 2},
      {"measurement": "Titer, 2 injections", "setting": "[2]; dose 10 μg (dry weight)", "value": "2,490"},
      {"measurement": "Titer, 3 injections", "setting": "[2]; dose 10 μg (dry weight)", "value": "9,573"},
      {"measurement": "Titer, 1 injection", "setting": "[2]; dose 30 μg (dry weight), one week after 1st injection", "value": 11},
      {"measurement": "Titer, 2 injections", "setting": "[2]; dose 30 μg (dry weight)", "value": "2,822"},
      {"measurement": "Titer, 3 injections", "setting": "[2]; dose 30 μg (dry weight)", "value": "8,195"},
      {"measurement": "Booster response", "setting": "[3]", "value": "showed the ability to induce the booster response"},
      {"measurement": "Titer, 1 injection", "setting": "[3]; dose 100 μg (dry weight of lyophilized conjugate)", "value": 0},
      {"measurement": "Titer, 2 injections", "setting": "[3]; dose 100 μg (dry weight)", "value": "1,067"},
      {"measurement": "Titer, 3 injections", "setting": "[3]; dose 100 μg (dry weight)", "value": "3,752"}
    ]},
    {"compound": "CN1CCCC1c1cccnc1.O=C(O)C(O)C(O)C(=O)O", "note": "(stereo not drawn) [nicotine tartrate]", "values": [
      {"measurement": "Highest dose without inducing locomotor abnormalities", "setting": "[6]", "value": 0.8, "unit": "mg/kg"}
    ]},
    {"compound": "CN1CCC[C@H]1c1cccnc1", "note": "[nicotine, (S)-(−)-nicotine]", "values": [
      {"measurement": "Time to peak levels of nicotine in the blood", "setting": "[7]; after smoking a cigarette", "value": "10 to 15", "unit": "min"},
      {"measurement": "Arterial versus venous nicotine concentrations", "setting": "[7]; humans, smoking a cigarette", "value": 10, "unit": "fold"}
    ]}
  ]
}
